According to patent US20230190887A1, “TARGETING G3BP AGGREGATION TO PREVENT NEURODEGENERATION” (priority 2019, published 2023):

Tested on: NMJs in co-cultures with puromycin-resistant muscles
Experiment: NMJ function after local protein synthesis inhibition
Type: cell-based, mouse
Settings: Puromycin 100 μg/mL exclusively in NMJ compartment, 16 h
Description: Analysis of NMJ function following protein synthesis inhibition with puromycin was performed by co-culturing WT MNs with primary muscles transfected with empty […]-mCherry vectors expressing PAC gene for puromycin resistance. After 12 days in co-culture, once cultures matured and NMJ were formed, Puromycin (100 μg/mL) was added exclusively to the distal (NMJ) compartment for 16 h. The proximal compartment was kept with higher volume of medium for allowing puromycin to act only locally within the NMJ compartment. After 16 h, cultures were labeled with OGB, and the calcium activity of axons and muscles was recorded. Analysis of the percent of muscles with calcium transients in co-culture, was performed on muscles with at least one overlapping axon. Only muscles that expressed mCherry (as a reporter for the expression of PAC) were used for this analysis. OGB lyophilized stock (Life technologies) was resuspended with 20% (w/v) Pluronic acid for a stock concentration of 3 mM Stock was diluted 1:1,000 in the appropriate medium. OGB was incubated with cultures for […] in 37° C., 5% CO2 incubator, and then washed 3 times with culture medium prior imaging. Calcium transients in axons and muscles were recorded in a spinning disk confocal microscope equipped with an EMCCD camera with ×40 oil objective using 488 nm laser. Image sequences of 1,000 frames were acquired at frame rate of 25 FPS. […]

SMILES: COc1ccc(C[C@H](N)C(=O)N[C@H]2[C@@H](O)[C@H](n3cnc4c(N(C)C)ncnc43)O[C@@H]2CO)cc1 [puromycin, Puromycin]
- active (innervated and contracting) muscles, calcium transients: pronounced decrease in active muscles
